Experimental data taken from ChEMBL document CHEMBL1201862, “PubChem BioAssay data set” (2004).
Active and inactive are the calls of the source.

Experiments:
[1] = molecular target: T1, Histone-lysine N-methyltransferase NSD2 (Homo sapiens, UniProt O96028); type: biochemical
T1 sequence (O96028 whole entry): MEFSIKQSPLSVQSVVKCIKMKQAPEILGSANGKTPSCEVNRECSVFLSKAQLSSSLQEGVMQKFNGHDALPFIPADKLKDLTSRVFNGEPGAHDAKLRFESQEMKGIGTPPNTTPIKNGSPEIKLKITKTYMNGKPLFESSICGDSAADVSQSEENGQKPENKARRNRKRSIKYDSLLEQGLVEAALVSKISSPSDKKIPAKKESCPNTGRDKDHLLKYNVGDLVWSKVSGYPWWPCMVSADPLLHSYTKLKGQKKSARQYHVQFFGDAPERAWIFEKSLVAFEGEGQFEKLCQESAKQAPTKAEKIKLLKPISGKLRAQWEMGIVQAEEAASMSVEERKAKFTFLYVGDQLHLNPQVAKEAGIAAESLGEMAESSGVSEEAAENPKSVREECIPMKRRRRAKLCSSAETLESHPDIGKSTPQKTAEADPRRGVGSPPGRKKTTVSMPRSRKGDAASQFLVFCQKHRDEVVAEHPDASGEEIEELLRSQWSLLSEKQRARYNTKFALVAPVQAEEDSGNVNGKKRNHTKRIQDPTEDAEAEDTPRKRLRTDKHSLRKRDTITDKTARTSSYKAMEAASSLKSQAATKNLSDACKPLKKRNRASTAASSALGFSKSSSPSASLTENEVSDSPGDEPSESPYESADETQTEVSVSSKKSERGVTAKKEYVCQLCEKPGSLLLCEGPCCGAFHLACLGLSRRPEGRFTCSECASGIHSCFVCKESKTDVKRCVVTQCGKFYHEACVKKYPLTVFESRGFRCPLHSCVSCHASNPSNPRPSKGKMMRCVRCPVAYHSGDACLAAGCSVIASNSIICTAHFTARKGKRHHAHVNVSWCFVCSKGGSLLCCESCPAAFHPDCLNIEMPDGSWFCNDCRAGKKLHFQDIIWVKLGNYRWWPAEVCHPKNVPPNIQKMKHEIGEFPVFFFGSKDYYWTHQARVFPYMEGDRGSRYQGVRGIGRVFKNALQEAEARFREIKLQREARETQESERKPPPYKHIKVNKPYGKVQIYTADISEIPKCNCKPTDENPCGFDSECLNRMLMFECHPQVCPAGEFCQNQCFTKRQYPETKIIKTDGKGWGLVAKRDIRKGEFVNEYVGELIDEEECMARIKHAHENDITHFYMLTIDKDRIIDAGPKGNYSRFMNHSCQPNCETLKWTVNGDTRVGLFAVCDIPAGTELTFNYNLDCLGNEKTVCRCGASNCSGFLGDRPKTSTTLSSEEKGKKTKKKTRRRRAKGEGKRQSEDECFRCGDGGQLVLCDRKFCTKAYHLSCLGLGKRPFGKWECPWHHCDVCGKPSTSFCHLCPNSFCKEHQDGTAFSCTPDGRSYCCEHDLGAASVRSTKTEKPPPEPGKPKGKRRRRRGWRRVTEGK

[2] = molecular target: T2, RNA-binding protein pos-1 (Caenorhabditis elegans, UniProt G5EF15); experiment: inhibitors of POS-1/mex-3 RNA binding, dose response, biochemical, fluorescence polarization (AID 1964);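 note: purified POS-1 fused to maltose binding protein made in E. coli; potency of compounds blocking POS-1 binding to fluorescent RNA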
T2 sequence (G5EF15 whole entry): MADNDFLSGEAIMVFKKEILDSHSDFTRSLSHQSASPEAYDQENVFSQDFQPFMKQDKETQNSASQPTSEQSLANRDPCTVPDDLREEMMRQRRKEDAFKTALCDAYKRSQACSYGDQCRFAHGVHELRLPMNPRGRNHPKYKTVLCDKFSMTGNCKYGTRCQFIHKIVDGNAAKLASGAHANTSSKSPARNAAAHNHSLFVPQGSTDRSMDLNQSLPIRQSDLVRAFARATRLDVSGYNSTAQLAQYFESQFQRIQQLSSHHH

[3] = molecular target: T3, Alkaline phosphatase, tissue-nonspecific isozyme (Homo sapiens, UniProt P05186); experiment: TNAP enzyme inhibition by screening hits, dose response, selectivity assay for mouse IAP inhibitor project, biochemical, human TNAP, uHTS hits (AID 488906); type: functional
T3 sequence (P05186 whole entry): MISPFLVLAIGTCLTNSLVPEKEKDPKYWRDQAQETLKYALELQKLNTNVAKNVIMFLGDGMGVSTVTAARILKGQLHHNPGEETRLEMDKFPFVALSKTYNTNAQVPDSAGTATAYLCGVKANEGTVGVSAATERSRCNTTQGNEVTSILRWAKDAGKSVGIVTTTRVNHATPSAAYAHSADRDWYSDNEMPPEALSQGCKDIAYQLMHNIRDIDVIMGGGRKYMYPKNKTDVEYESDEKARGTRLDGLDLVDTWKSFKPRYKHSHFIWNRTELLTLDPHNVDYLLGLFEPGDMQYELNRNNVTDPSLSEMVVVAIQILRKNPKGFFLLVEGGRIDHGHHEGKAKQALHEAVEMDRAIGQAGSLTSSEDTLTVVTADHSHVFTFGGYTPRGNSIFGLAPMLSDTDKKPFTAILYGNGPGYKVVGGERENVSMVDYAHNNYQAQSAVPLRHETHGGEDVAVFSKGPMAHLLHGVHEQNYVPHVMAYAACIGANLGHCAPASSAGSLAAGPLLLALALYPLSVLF

[4] = molecular target: T4, Rac GTPase-activating protein 1 (Homo sapiens, UniProt Q9H0H5); experiment: MgcRacGAP GTPase-activating activity inhibitors, confirmation, biochemical, ADP Hunter fluorescence, primary and confirmatory (AID 624330); type: functional
T4 sequence (Q9H0H5 whole entry): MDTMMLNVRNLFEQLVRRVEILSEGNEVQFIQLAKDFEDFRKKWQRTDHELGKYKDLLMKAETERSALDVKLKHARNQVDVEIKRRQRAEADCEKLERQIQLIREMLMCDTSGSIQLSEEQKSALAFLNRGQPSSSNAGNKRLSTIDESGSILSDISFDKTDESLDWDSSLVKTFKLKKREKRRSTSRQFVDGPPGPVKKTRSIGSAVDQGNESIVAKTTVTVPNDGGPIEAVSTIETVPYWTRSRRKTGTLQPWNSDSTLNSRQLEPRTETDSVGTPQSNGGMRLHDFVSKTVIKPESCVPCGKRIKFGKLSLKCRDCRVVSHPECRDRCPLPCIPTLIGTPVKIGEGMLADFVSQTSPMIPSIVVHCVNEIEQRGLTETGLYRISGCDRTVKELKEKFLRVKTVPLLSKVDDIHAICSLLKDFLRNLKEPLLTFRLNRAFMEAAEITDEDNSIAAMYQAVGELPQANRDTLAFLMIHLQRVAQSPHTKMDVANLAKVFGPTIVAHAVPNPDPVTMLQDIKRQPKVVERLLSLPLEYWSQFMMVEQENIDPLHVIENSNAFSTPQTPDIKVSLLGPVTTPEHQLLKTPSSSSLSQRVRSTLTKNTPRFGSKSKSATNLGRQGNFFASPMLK

[5] = molecular target: T5, Zinc finger protein mex-5 (Caenorhabditis elegans, UniProt Q9XUB2); experiment: MEX-5/TCR-2 RNA interaction inhibitors, dose response, biochemical, C. elegans, fluorescence polarization (AID 1960)
T5 sequence (Q9XUB2 whole entry): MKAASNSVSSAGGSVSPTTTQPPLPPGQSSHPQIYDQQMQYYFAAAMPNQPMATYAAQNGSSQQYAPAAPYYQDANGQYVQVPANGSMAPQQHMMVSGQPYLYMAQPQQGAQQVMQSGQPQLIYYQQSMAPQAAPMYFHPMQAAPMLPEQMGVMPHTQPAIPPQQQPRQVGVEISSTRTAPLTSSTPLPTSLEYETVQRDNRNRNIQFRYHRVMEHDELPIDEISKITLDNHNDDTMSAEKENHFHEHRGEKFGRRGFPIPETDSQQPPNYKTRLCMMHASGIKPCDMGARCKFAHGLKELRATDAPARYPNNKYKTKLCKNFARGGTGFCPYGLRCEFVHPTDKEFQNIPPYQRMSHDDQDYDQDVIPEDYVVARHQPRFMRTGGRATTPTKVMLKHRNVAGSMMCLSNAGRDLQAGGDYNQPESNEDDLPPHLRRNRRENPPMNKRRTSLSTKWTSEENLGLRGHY

[6] = molecular target: Intestinal-type alkaline phosphatase (Homo sapiens, UniProt P09923); experiment: inhibition of human intestinal alkaline phosphatase – biochemical, dose response (AID 488876); type: functional
Sequence of Intestinal-type alkaline phosphatase (Homo sapiens, UniProt P09923) (P09923 whole entry): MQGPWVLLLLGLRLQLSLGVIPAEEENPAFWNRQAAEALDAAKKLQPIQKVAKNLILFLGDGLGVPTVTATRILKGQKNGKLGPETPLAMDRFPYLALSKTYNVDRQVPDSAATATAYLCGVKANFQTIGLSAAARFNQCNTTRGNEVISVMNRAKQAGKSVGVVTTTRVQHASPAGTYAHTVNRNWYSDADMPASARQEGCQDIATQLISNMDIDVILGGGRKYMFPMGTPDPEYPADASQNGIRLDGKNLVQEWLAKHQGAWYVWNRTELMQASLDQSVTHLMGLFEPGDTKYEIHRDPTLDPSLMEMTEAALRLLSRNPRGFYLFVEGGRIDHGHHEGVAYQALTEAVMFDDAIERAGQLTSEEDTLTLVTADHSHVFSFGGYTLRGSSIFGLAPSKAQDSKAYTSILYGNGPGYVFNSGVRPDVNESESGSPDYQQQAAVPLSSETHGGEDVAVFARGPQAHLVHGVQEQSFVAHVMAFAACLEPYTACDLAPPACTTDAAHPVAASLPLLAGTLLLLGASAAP

[7] = molecular target: 1-phosphatidylinositol 4,5-bisphosphate phosphodiesterase beta-3 (Homo sapiens, UniProt Q01970); experiment: Fluorescence-based biochemical high throughput dose response assay to identify inhibitors of phospholipase C isozymes (PLC-B3).
Sequence of 1-phosphatidylinositol 4,5-bisphosphate phosphodiesterase beta-3 (Q01970 whole entry): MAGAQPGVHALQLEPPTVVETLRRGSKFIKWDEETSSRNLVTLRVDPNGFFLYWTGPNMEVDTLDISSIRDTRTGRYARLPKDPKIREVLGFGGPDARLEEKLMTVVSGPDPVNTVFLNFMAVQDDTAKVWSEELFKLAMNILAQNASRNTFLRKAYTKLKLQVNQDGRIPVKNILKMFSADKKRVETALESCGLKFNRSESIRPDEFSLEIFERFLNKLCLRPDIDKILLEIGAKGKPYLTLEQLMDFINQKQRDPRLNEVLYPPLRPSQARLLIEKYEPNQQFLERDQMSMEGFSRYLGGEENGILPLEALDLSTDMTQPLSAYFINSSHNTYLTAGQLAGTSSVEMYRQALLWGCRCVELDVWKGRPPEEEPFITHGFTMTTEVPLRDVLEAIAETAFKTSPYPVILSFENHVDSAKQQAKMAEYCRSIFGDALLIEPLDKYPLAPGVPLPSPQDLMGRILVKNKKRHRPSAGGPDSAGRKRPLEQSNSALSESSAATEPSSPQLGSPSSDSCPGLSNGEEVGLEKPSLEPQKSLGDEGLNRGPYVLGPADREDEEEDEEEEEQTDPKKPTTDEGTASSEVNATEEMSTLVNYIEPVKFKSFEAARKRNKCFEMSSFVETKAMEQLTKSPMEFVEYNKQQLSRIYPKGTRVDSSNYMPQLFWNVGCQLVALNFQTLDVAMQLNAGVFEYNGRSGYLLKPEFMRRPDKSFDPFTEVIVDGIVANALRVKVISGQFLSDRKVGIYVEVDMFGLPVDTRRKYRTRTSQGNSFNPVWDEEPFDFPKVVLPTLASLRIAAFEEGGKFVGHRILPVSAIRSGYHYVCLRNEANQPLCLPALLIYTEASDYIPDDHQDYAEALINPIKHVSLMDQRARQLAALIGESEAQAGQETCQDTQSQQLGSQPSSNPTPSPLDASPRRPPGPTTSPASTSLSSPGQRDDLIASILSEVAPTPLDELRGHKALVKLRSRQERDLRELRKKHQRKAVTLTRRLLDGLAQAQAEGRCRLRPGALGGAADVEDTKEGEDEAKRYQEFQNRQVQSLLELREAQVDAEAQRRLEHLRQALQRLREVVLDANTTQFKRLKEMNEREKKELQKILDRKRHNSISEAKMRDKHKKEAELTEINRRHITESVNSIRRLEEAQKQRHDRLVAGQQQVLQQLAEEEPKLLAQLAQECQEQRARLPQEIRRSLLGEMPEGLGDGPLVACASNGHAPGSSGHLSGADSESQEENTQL

[8] = molecular target: Intestinal-type alkaline phosphatase (Mus musculus, UniProt P24822); experiment: PubChem AID 488785; type: functional
[9] = molecular target: 1-phosphatidylinositol 4,5-bisphosphate phosphodiesterase gamma-1 (Homo sapiens, UniProt P19174); experiment: Counterscreen for inhibitors of phospholipase C isozymes (PLC-B3): Fluorescence-based biochemical high throughput dose response assay to identify inhibitors of phospholipase C isozymes (PLC-gamma1).
Sequence of 1-phosphatidylinositol 4,5-bisphosphate phosphodiesterase gamma-1 (P19174 whole entry): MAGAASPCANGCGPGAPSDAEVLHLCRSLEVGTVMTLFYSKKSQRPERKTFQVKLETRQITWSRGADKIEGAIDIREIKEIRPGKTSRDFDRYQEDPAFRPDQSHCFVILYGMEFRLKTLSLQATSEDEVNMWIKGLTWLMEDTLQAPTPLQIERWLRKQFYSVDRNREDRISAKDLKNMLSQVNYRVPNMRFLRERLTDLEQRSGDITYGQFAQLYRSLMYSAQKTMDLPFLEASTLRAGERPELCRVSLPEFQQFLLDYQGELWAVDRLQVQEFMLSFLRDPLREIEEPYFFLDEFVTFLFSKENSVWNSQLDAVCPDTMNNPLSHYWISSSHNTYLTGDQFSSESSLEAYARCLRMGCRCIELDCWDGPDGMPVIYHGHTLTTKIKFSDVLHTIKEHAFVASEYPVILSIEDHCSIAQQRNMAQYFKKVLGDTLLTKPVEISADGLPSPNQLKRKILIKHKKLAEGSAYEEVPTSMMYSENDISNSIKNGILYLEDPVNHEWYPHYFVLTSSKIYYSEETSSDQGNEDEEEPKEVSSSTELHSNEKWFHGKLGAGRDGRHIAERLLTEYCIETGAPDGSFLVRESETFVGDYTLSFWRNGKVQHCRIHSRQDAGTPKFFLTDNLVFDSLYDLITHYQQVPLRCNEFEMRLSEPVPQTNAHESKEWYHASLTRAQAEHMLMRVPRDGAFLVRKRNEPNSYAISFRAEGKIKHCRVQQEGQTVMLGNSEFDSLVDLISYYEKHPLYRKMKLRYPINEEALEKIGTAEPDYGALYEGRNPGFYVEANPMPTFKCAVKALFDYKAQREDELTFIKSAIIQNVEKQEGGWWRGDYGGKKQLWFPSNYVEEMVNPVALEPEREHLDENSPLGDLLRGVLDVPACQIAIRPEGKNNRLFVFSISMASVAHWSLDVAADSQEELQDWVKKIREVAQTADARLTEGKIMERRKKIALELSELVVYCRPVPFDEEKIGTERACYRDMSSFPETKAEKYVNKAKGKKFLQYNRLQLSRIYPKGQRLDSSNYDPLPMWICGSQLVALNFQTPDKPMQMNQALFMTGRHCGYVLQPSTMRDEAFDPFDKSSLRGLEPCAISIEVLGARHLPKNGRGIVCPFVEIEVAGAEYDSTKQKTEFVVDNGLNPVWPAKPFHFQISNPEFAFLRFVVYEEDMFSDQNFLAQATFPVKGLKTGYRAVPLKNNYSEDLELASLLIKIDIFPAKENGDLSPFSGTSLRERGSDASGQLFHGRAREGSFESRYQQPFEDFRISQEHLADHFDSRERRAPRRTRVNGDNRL

[10] = molecular target: Nonstructural protein 1 (Influenza A virus, UniProt Q194T2); type: functional, Influenza A virus (A/California/07/2009(H1N1))
Sequence of Nonstructural protein 1 (Q194T2 whole entry): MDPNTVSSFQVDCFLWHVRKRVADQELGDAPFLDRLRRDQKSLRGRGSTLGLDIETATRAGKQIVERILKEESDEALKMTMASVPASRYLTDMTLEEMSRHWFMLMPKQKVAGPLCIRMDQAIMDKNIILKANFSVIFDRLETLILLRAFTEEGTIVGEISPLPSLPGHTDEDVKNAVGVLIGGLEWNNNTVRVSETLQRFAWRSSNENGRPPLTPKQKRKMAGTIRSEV

[11] = molecular target: Protein Tat (Human immunodeficiency virus type 1 group M subtype B (isolate HXB2)(HIV-1), UniProt P04608); type: functional;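 note: tat binding to TAR RNA read out by fluorescence polarization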
Sequence of Protein Tat (P04608 whole entry): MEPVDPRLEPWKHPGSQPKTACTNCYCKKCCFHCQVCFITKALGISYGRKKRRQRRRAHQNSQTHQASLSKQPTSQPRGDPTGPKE

[12] = molecular target: Kallikrein-7 (Homo sapiens, UniProt P49862); experiment: Fluorescence Intensity-based biochemical primary high throughput dose response assay to identify activators of kallikrein-7 (K7) zymogen.
Sequence of Kallikrein-7 (P49862 whole entry, the tested form may be a part): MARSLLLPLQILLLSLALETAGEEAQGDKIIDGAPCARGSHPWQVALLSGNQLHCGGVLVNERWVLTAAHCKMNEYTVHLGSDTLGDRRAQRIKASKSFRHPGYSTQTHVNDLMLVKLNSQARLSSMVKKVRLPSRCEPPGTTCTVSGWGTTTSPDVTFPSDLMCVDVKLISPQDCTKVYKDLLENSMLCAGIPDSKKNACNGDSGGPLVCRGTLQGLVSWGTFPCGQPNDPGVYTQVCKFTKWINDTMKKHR

[13] = molecular target: T6, Oxysterols receptor LXR-beta (Homo sapiens, UniProt P55055); type: functional, cell-based;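 note: Cell-based luminescence dose-response assay of agonist activity at LXR, run as a confirmatory counterscreen to a daf-12 agonist screen; HEK293 cells with Gal4-LXR fusion and GAL4-driven luciferase reporter; agonist potency from rising luciferase signal of a Gal4-LXR reporter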
T6 sequence (P55055 whole entry): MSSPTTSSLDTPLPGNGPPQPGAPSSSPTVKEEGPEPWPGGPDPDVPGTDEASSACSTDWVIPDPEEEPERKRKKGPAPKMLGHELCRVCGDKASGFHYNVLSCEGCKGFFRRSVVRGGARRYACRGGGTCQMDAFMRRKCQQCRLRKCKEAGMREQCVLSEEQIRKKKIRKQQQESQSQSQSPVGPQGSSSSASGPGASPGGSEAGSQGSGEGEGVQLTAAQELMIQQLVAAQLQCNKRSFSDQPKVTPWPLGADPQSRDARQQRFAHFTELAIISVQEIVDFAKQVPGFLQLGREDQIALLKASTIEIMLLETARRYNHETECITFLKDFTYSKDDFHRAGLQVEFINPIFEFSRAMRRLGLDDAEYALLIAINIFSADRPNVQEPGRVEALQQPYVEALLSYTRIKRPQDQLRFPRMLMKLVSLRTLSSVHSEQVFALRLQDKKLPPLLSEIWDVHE

[14] = cells
[15] = A375 melanoma cell viability loss, dose response, counter-screen for MITF inhibitor project, CellTiter-Glo luminescence, dry powder, set 4 (AID 624364); type: functional, cell-based; details: A-375;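 note: A375 melanoma cells are MITF independent so this is a counter screen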
[16] = A375 melanoma cell cytotoxicity, dose response, counter-screen for MITF inhibitor project, CellTiter-Glo luminescence, dry powder, set 2 (AID 624489); type: functional, cell-based; details: A-375;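 note: actives are compounds lowering A375 viability meaning general cytotoxicity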
[17] = HepG2 cell cytotoxicity, dose response, cytotoxicity control for Shn3 inhibitor project, CellTiter-Glo, cherry-picked (AID 624134); type: functional, cell-based
[18] = molecular target: RNA-editing ligase 1, mitochondrial (Trypanosoma brucei brucei, UniProt P86926); experiment: TbREL1 ligase inhibitors, dose response, biochemical, fluorescence, Trypanosoma brucei (AID 1117295); type: functional
Sequence of RNA-editing ligase 1, mitochondrial (P86926 whole entry): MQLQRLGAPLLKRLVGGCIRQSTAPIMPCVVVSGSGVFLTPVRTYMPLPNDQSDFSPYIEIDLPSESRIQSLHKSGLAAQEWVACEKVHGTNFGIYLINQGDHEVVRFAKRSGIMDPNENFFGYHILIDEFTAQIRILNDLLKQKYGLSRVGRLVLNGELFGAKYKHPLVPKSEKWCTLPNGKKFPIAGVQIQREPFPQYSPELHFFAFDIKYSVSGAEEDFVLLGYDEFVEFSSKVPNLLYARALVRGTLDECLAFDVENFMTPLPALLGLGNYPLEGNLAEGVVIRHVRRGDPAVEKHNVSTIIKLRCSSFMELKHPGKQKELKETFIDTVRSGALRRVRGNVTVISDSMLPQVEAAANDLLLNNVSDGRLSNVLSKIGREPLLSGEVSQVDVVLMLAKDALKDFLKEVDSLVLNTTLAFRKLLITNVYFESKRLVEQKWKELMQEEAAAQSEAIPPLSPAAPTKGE

[19] = Luminescence Cell-Based Dose Retest to Confirm Inhibitors of Cancer Stem Cells. [Related pubchem assays (depositor defined):AID2717, AID2721]; type: functional; details: Homo sapiens
[20] = system: INS1; experiment: beta cell apoptosis inhibitors, cytokine rescue, dose response, luminescence, retest (AID 449756); type: functional, cell-based; details: Rattus norvegicus;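 note: cell death triggered by IL-1 beta plus TNF-alpha plus IFN-gamma mixture; protective hits raise ATP signal compared with cytokine alone wells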
[21] = control 3'UTR Renilla luciferase suppression, dose response, counter-screen for Shn3 inhibitor project, cell-based, Clone20-Shn3RL, cherry-picked (AID 624133); type: functional
[22] = Shn3 3'UTR reporter inhibitors, dose response, cell-based, Clone20 osteoblasts, firefly luciferase, cherry-picked (AID 624132); type: functional;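 note: firefly luciferase luminescence from reporter carrying the Shn3 3'UTR in osteoblasts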
[23] = molecular target: Disintegrin and metalloproteinase domain-containing protein 17 (Homo sapiens, UniProt P78536); experiment: exosite inhibitors of ADAM17, dose response, biochemical (AID 743260)
Sequence of Disintegrin and metalloproteinase domain-containing protein 17 (P78536 whole entry, the tested form may be a part): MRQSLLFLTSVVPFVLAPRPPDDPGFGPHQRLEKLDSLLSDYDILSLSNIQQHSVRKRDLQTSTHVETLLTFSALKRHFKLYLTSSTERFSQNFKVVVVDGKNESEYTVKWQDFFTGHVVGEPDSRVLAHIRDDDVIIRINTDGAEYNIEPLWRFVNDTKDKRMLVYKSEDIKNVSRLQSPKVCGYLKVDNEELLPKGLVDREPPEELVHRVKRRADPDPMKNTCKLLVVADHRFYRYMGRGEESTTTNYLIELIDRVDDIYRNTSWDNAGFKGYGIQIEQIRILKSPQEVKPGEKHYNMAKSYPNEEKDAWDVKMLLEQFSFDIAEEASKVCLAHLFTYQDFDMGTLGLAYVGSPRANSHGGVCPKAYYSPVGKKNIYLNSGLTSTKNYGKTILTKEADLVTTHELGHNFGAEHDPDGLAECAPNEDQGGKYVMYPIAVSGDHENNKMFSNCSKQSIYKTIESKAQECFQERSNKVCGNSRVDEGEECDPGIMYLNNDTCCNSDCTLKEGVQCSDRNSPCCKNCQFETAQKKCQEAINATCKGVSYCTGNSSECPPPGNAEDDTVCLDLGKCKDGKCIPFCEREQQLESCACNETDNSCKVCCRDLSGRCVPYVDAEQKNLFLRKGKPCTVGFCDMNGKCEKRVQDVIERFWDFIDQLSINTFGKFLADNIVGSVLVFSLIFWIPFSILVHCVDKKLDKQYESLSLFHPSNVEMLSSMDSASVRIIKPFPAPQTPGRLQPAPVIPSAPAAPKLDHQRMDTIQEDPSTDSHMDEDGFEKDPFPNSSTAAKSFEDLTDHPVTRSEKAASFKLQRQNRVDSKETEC

[24] = ADAM10 protease inhibitors, dose response, selectivity assay for ADAM17 exosite inhibitor project, biochemical, FRET peptide substrate, recombinant human ADAM10 (AID 743259);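 note: ADAM10 enzyme cleaving a FRET peptide substrate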
[25] = microbe, parasite or virus in culture; type: functional; details: Mycobacterium tuberculosis

O=C(/C=C/c1ccco1)NC(=S)Nc1ccc(C(=O)O)cc1
AC50 [1]: 13 µM (active) | EC50 [2]: 8.75 µM (active) | IC50 [3]: 45 µM (active) | IC50 [4]: 147 µM (active) | EC50 [5]: 12.8 µM (active) | IC50 [6]: 21.8 µM (active) | IC50 [7]: > 122 µM (inactive) | IC50 [8]: 2.97 µM (active) | IC50 [9]: > 122 µM (inactive)

Oc1ccccc1C=Nc1ccc(F)c2c(O)[nH]nc12
IC50 [10]: 41.6 µM (active) | IC50 [11]: 3.3 µM (inconclusive)

O=C(Nc1ncc2c(n1)-c1ccccc1OC2)c1ccc(F)cc1
EC50 [12]: > 69.5 µM (inactive)

CC(=O)Nc1ccc(NC(=O)CSCc2cnn(-c3ccccc3)c2-n2cccc2)cc1
IC50 [11]: > 100 µM (active)

CCc1ccccc1NC(=O)CSc1nc2nnc(C)c-2c(N)n1-c1ccc(OC)cc1
EC50 [12]: 4.1 µM (active)

Cc1cc(/C=C2\SC(=S)N=C2O)c(C)n1-c1ccccc1
EC50 [13]: > 67.6 µM (inactive)

Cc1cc(/C=C2\SC(=S)NC2=O)c(C)n1-c1ccccc1
EC50 [14]: > 67.6 µM (inactive)

COc1cccc(C2=C(NC(=O)c3ccccc3)C(=O)c3ccccc3C2=O)c1
AC50 [15]: 21 µM (active) | AC50 [16]: 10.5 µM (active)

O=C1C(NS(=O)(=O)c2ccc(Br)s2)=C(N2CCCCC2)C(=O)c2ccccc21
AC50 [15]: > 70 µM (inactive) | AC50 [16]: > 70 µM (inactive)

COc1ccc(C(CCNCc2ccc(OC(C)C)cc2)c2ccccc2OC)cc1 (stereo not given)
AC50 [17]: 15.3 µM (active) | IC50 [18]: > 96.6 µM (inactive) | AC50 [19]: 5.99 µM (active) | AC50 [20]: 7.21 µM (active) | AC50 [21]: 4.38 µM (active) | AC50 [22]: 6.44 µM (active)

COC(=O)C1=C(C)N(Cc2ccc(C(F)(F)F)cc2)C(NCc2cccc(C(F)(F)F)c2)=NC1c1ccccc1C(F)(F)F (stereo not given)
IC50 [18]: > 96.6 µM (inactive)

O=C(Nc1ccccc1)C1=C[C@@H](C2CCCCC2)C[C@@H](OCc2ccc(CO)cc2)O1
IC50 [23]: > 69.5 µM (inactive) | IC50 [24]: 21.8 µM (inactive) | CC50 [25]: > 40 µM (active)
